Converted amounts (≈) assume the structure as drawn.
How the values were obtained:
Assay type in all cases: physicochemical
[1] = Dynamic vapor sorption (DVS)
Method: DVS. DVS was measured via a SMS (Surface Measurement Systems) DVS Intrinsic. The relative humidity at 25° C. were calibrated against deliquescence point of LiCl, Mg(NO3)2 and KCl.
(onset temperature). Considering the low TGA weight loss and single sharp DSC endotherm, Form A was postulated to be an anhydrate. […] However Form A has been prepared with much lower volatile content (0.1% or lower).

[2] = Physical and chemical stability of Form A (solid storage)
Method: To evaluate the physical and chemical stability, Compound (1) Form A was stored in 3 conditions (40° C./75% RH; 25° C./60% RH; and 60° C.) for one and four weeks.

[3] = Kinetic solubility in bio-relevant media and H2O; conditions: for Final Form: residual solid; for Final Form / solubility at 1 h / solubility at 4 h / solubility at 24 h: 37° C.; for solubility at 1 h / solubility at 4 h / solubility at 24 h: thermodynamic from solid, Turbid
Method: Solids were suspended in FaSSIF, FeSSIF, SGF and H2O with target conc. of ˜10 mg/mL. The suspensions were agitated on a rolling incubator at 25 rpm (in the incubator set at 37° C.) for 1, 4 and 24 hrs. At each time point, 1 mL of the suspension was pipetted out for centrifugation at 15000 rpm (3 min) and filtration through 0.45 μm membrane to obtain supernatant for HPLC solubility and pH tests, the residual solids were analyzed by XRPD.

[4] = 24-Hrs solubility in pH buffers; conditions: for solubility at 24 h: aqueous buffer, thermodynamic from solid, Turbid; for Final Form: residual solid; for solubility at 24 h / Final Form: 24 hrs
[5] = Solution stability in pH buffers; conditions: 37° C.; for Purity vs. Initial (%): ~0.5 mg/mL, Clear
Method: Solution stability study was performed in pH 2.0/4.0/6.0/7.0 (24 hrs) and pH 8.0 (24 hrs and 96 hrs) buffers. Solids were dissolved with pH buffers with target conc. of ˜0.5 mg/mL to form clear solutions and stored at 37° C. for 24 hrs or 96 hrs.

[6] = 40° C./75% RH, 25° C./60% RH, 60° C., one and four weeks
[7] = pH 7.0 (50 mM Phosphate), 24 hrs
[8] = pH 8.0 (50 mM Phosphate), 24 hrs
[9] = pH 8.0 (50 mM Phosphate), 96 hrs

water uptake (DVS) ([1]; 25 C.°/80% RH): 0.024% | form change after DVS test (XRPD) ([1]; after DVS test): no form change | API (RRT 1.00) % Area ([2]; 1 week, 25° C./60% RH): 99.92 % Area | Description ([2]; 1 week, 25° C./60% RH): White powder | Final Form ([2]; 1 week, 25° C./60% RH): Form A | Imp.1 (RRT 0.68) % Area ([2]; 1 week, 25° C./60% RH): 0.08 % Area | Purity VS. initial (%) ([2]; 1 week, 25° C./60% RH): 100.0% | API (RRT 1.00) % Area ([2]; 1 week, 40° C./75% RH): 99.89 % Area | Description ([2]; 1 week, 40° C./75% RH): White powder | Final Form ([2]; 1 week, 40° C./75% RH): Form A | Imp.1 (RRT 0.68) % Area ([2]; 1 week, 40° C./75% RH): 0.11 % Area | Purity VS. initial (%) ([2]; 1 week, 40° C./75% RH): 100.0% | API (RRT 1.00) % Area ([2]; 1 week, 60° C.): 99.90 % Area | Description ([2]; 1 week, 60° C.): White powder | Final Form ([2]; 1 week, 60° C.): Form A | Imp.1 (RRT 0.68) % Area ([2]; 1 week, 60° C.): 0.10 % Area | Purity VS. initial (%) ([2]; 1 week, 60° C.): 100.0% | API (RRT 1.00) % Area ([2]; 4 weeks, 25° C./60% RH): 99.90 % Area | Description ([2]; 4 weeks, 25° C./60% RH): White powder | Final Form ([2]; 4 weeks, 25° C./60% RH): Form A | Imp.1 (RRT 0.68) % Area ([2]; 4 weeks, 25° C./60% RH): 0.10 % Area | Purity VS. initial (%) ([2]; 4 weeks, 25° C./60% RH): 100.0% | API (RRT 1.00) % Area ([2]; 4 weeks, 40° C./75% RH): 99.90 % Area | Description ([2]; 4 weeks, 40° C./75% RH): White powder | Final Form ([2]; 4 weeks, 40° C./75% RH): Form A | Imp.1 (RRT 0.68) % Area ([2]; 4 weeks, 40° C./75% RH): 0.10 % Area | Purity VS. initial (%) ([2]; 4 weeks, 40° C./75% RH): 100.0% | API (RRT 1.00) % Area ([2]; 4 weeks, 60° C.): 99.90 % Area | Description ([2]; 4 weeks, 60° C.): White powder | Final Form ([2]; 4 weeks, 60° C.): Form A | Imp.1 (RRT 0.68) % Area ([2]; 4 weeks, 60° C.): 0.10 % Area | Purity VS. initial (%) ([2]; 4 weeks, 60° C.): 100.0% | HPLC purity change on storage [2, 6]: no obvious HPLC purity change | form change on storage (XRPD) [2, 6]: no form change | API (RRT 1.00) % Area ([2]; Initial): 99.89 % Area | Imp.1 (RRT 0.68) % Area ([2]; Initial): 0.11 % Area | form change after kinetic solubility test ([3]; bio-relevant media or H2O): No form change | Final Form ([3]; FaSSIF (pH 6.5), 1 hr): Form A | Final Form ([3]; FaSSIF (pH 6.5), 4 hr): Form A | Final Form ([3]; FaSSIF (pH 6.5), 24 hr): Form A | Final Form ([3]; FeSSIF (pH 5.0), 1 hr): Form A | Final Form ([3]; FeSSIF (pH 5.0), 4 hr): Form A | Final Form ([3]; FeSSIF (pH 5.0), 24 hr): Form A | Final Form ([3]; H2O (pH 6.5), 1 hr): Form A | Final Form ([3]; H2O (pH 6.5), 4 hr): Form A | Final Form ([3]; H2O (pH 6.5), 24 hr): Form A | Final Form ([3]; SGF (pH 1.8), 1 hr): Form A | Final Form ([3]; SGF (pH 1.8), 4 hr): Form A | Final Form ([3]; SGF (pH 1.8), 24 hr): Form A | solubility at 1 h ([3]; simulated gastric fluid, SGF (pH 1.8), 1 hr, final pH 1.8): 2300 µg/mL (≈ 7.79 mM) | solubility at 4 h ([3]; simulated gastric fluid, SGF (pH 1.8), 4 hr, final pH 2.3): 2400 µg/mL (≈ 8.13 mM) | solubility at 24 h ([3]; simulated gastric fluid, SGF (pH 1.8), 24 hr, final pH 2.2): 2500 µg/mL (≈ 8.47 mM) | solubility at 1 h ([3]; FaSSIF (pH 6.5), 1 hr, final pH 6.4): 1100 µg/mL (≈ 3.73 mM) | solubility at 4 h ([3]; FaSSIF (pH 6.5), 4 hr, final pH 6.6): 1100 µg/mL (≈ 3.73 mM) | solubility at 24 h ([3]; FaSSIF (pH 6.5), 24 hr, final pH 6.6): 1200 µg/mL (≈ 4.06 mM) | solubility at 1 h ([3]; FeSSIF (pH 5.0), 1 hr, final pH 5.6): 1100 µg/mL (≈ 3.73 mM) | solubility at 4 h ([3]; FeSSIF (pH 5.0), 4 hr, final pH 5.6): 1200 µg/mL (≈ 4.06 mM) | solubility at 24 h ([3]; FeSSIF (pH 5.0), 24 hr, final pH 5.6): 1200 µg/mL (≈ 4.06 mM) | solubility at 1 h ([3]; water, H2O (pH 6.5), 1 hr, final pH 8.5): 1100 µg/mL (≈ 3.73 mM) | solubility at 4 h ([3]; water, H2O (pH 6.5), 4 hr, final pH 8.4): 1100 µg/mL (≈ 3.73 mM) | solubility at 24 h ([3]; water, H2O (pH 6.5), 24 hr, final pH 8.7): 1100 µg/mL (≈ 3.73 mM) | solubility at 24 h ([4]; 50 mM HCl-KCl buffer, pH 2.0 (50 mM HCl—KCl), final pH 2.3): 1800 µg/mL (≈ 6.1 mM) | solubility at 24 h ([4]; 50 mM citrate buffer, pH 4.0 (50 mM Citrate), final pH 4.1): 840 µg/mL (≈ 2.84 mM) | solubility at 24 h ([4]; 50 mM citrate buffer, pH 6.0 (50 mM Citrate), final pH 5.9): 750 µg/mL (≈ 2.54 mM) | solubility at 24 h ([4]; 50 mM phosphate buffer, pH 7.0 (50 mM Phosphate), final pH 6.9): 900 µg/mL (≈ 3.05 mM) | solubility at 24 h ([4]; 50 mM phosphate buffer, pH 8.0 (50 mM Phosphate), final pH 7.8): 810 µg/mL (≈ 2.74 mM) | form change after equilibrium solubility evaluation ([4]; pH buffers): no form change | Final Form ([4]; pH 2.0 (50 mM HCl—KCl)): Form A | Final Form ([4]; pH 4.0 (50 mM Citrate)): Form A | Final Form ([4]; pH 6.0 (50 mM Citrate)): Form A | Final Form ([4]; pH 7.0 (50 mM Phosphate)): Form A | Final Form ([4]; pH 8.0 (50 mM Phosphate)): Form A | API (RRT 1.00) % Area ([5]; pH 2.0 (50 mM HCl—KCl), 24 hrs): 84.93 % Area | Imp. 1 (RRT 0.66) % Area ([5]; pH 2.0 (50 mM HCl—KCl), 24 hrs): 0.15 % Area | Imp. 1 (RRT 0.70) % Area ([5]; pH 2.0 (50 mM HCl—KCl), 24 hrs): 0.67 % Area | Imp. 1 (RRT 0.76) % Area ([5]; pH 2.0 (50 mM HCl—KCl), 24 hrs): 14.25 % Area | Imp. 1 (RRT 1.05) % Area ([5]; pH 2.0 (50 mM HCl—KCl), 24 hrs): — (—: <0.05 area %) | Purity vs. Initial (%) ([5]; pH 2.0 (50 mM HCl—KCl), 24 hrs): 85.1% | degradation in solution ([5]; pH 2.0 and pH 4.0 buffers, 24 hrs): Degradation was observed | API (RRT 1.00) % Area ([5]; pH 4.0 (50 mM Citrate), 24 hrs): 98.42 % Area | Imp. 1 (RRT 0.66) % Area ([5]; pH 4.0 (50 mM Citrate), 24 hrs): 0.15 % Area | Imp. 1 (RRT 0.70) % Area ([5]; pH 4.0 (50 mM Citrate), 24 hrs): — (—: <0.05 area %) | Imp. 1 (RRT 0.76) % Area ([5]; pH 4.0 (50 mM Citrate), 24 hrs): 0.38 % Area | Imp. 1 (RRT 1.05) % Area ([5]; pH 4.0 (50 mM Citrate), 24 hrs): 0.06 % Area | Purity vs. Initial (%) ([5]; pH 4.0 (50 mM Citrate), 24 hrs): 98.5% | API (RRT 1.00) % Area ([5]; pH 6.0 (50 mM Citrate), 24 hrs): 99.75 % Area | Imp. 1 (RRT 0.66) % Area ([5]; pH 6.0 (50 mM Citrate), 24 hrs): 0.13 % Area | Imp. 1 (RRT 0.70) % Area ([5]; pH 6.0 (50 mM Citrate), 24 hrs): — (—: <0.05 area %) | Imp. 1 (RRT 0.76) % Area ([5]; pH 6.0 (50 mM Citrate), 24 hrs): 0.06 % Area | Imp. 1 (RRT 1.05) % Area ([5]; pH 6.0 (50 mM Citrate), 24 hrs): 0.06 % Area | Purity vs. Initial (%) ([5]; pH 6.0 (50 mM Citrate), 24 hrs): 99.8% | API (RRT 1.00) % Area [5, 7]: 99.78 % Area | Imp. 1 (RRT 0.66) % Area [5, 7]: 0.15 % Area | Imp. 1 (RRT 0.70) % Area [5, 7]: — (—: <0.05 area %) | Imp. 1 (RRT 0.76) % Area [5, 7]: — (—: <0.05 area %) | Imp. 1 (RRT 1.05) % Area [5, 7]: 0.07 % Area | Purity vs. Initial (%) [5, 7]: 99.9% | API (RRT 1.00) % Area [5, 8]: 99.81 % Area | Imp. 1 (RRT 0.66) % Area [5, 8]: 0.13 % Area | Imp. 1 (RRT 0.70) % Area [5, 8]: — (—: <0.05 area %) | Imp. 1 (RRT 0.76) % Area [5, 8]: — (—: <0.05 area %) | Imp. 1 (RRT 1.05) % Area [5, 8]: 0.06 % Area | Purity vs. Initial (%) [5, 8]: 100.0% | API (RRT 1.00) % Area [5, 9]: 99.83 % Area | Imp. 1 (RRT 0.66) % Area [5, 9]: 0.13 % Area | Imp. 1 (RRT 0.70) % Area [5, 9]: — (—: <0.05 area %) | Imp. 1 (RRT 0.76) % Area [5, 9]: — (—: <0.05 area %) | Imp. 1 (RRT 1.05) % Area [5, 9]: 0.04 % Area | Purity vs. Initial (%) [5, 9]: 100.0%
Structure (SMILES): CC(C)(C(=O)N1CCOc2c(C#N)cncc2C1)C(F)F [Form A, 4-(3,3-difluoro-2,2-dimethyl-propanoyl)-3,5-dihydro-2H-pyrido[3,4-f][1,4]oxazepine-9-carbonitrile]

Reference: US20240299412A1, “DRUG FORMULATIONS OF 4-(3,3-DIFLUORO-2,2-DIMETHYL-PROPANOYL) -3,5-DIHYDRO-2H-PYRIDO[3,4-f][1,4]OXAZEPINE-9-CARBONITRILE” (Genzyme Corporation, priority 2023, published 2024)
